In patent US20130109682A1, “CYCLIC ETHER COMPOUNDS USEFUL AS KINASE INHIBITORS” (NOVARTIS AG, priority 2010, published 2013):
pEC50, pIC50: −log10 of the molar value.

What was measured:
[1] = target: PIM2 (Homo sapiens, UniProt Q9P1W9); test: KinaseGlo Pim2 ATP depletion assay; type: biochemical
How it was run: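 Compound sat 15 min with enzyme and BAD peptide before ATP was added; final levels 5 nM PIM2, 10 μM peptide, 4 μM ATP, 2.5% DMSO, pH 7.5 HEPES buffer with MgCl2, DTT, BSA. Stopped near 50% ATP consumption; remaining ATP measured by luciferase luminescence.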

[2] = tested on: KMS11 (human myeloma cell line); test: Cell proliferation assay (CellTiter-Glo), KMS11; type: cell-based; details: Homo sapiens, KMS-11; KMS11-Luc cells
Method: KMS11 (human myeloma cell line), were cultured in IMDM supplemented with 10% FBS, sodium pyruvate and antibiotics. Cells were plated in the same medium at a density of 2000 cells per well into 96 well tissue culture plates, with outside wells vacant, on the day of assay. MMl.s (human myeloma cell line), were cultured in RPMI1640 supplemented with 10% FBS, sodium pyruvate and antibiotics. Cells were plated in the same medium at a density of 5000 cells per well into 96 well tissue culture plates, with outside wells vacant, on the day of assay.
Test compounds supplied in DMSO were diluted into DMSO at 500 times the desired final concentrations before dilution into culture media to 2 times final concentrations. Equal volumes of 2× compounds were added to the cells in 96 well plates and incubated at 37° C. for 3 days.
After 3 days plates were equilibrated to room temperature and equal volume of CellTiter-Glow Reagent (Promega) was added to the culture wells. The plates were agitated briefly and luminescent signal was measured with luminometer.
Using the procedures of Cell Proliferation Assay, the EC50 concentration of indicated compounds of the examples in were determined in KMS11 cells as shown in Table 4.

[3] = target: PIM1 (Homo sapiens, UniProt P11309); test: KinaseGlo Pim1 ATP depletion assay; type: biochemical
How it was run: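 IC50 is derived from residual ATP measured by KinaseGlo Plus luminescence once about half the ATP was consumed. Final conditions were 20 μM ATP, 40 μM BAD peptide and 2.5 nM kinase in HEPES pH 7.5 buffer with MgCl2, DTT and BSA, plus 2.5% DMSO. Compound and enzyme were premixed 15 min before ATP addition.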

[4] = target: GSK3β (Homo sapiens, UniProt P49841); test: GSK3β ATP depletion assay; type: biochemical; details: read-out: GSK3b IC50
How it was run: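 Kinase activity is read as ATP consumption: luciferase luminescence reports the ATP remaining once roughly half of the 2 μM ATP is used. Reaction mix: 5 nM GSK3β, 10 μM b-CREB peptide, 50 mM Tris pH 7.5, 15 mM MgCl2, 1 mM DTT, 0.1% BSA, 2.5% DMSO. Enzyme and peptide are preincubated 15 min before ATP is added.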

[5] = target: PIM3 (Homo sapiens, UniProt Q86V86); test: KinaseGlo Pim3 ATP depletion assay; type: biochemical
How it was run: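 Residual ATP was detected by luciferase luminescence once about half had been consumed. The reaction contained 5 nM enzyme, 100 μM BAD peptide (RSRHSSYPAGT) and 40 μM ATP in 50 mM HEPES pH 7.5, 5 mM MgCl2, 1 mM DTT and 0.05% BSA with 2.5% DMSO. Compound and enzyme/peptide were premixed 15 min before ATP.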

Chain of GSK3β (P49841 whole entry, species assumed): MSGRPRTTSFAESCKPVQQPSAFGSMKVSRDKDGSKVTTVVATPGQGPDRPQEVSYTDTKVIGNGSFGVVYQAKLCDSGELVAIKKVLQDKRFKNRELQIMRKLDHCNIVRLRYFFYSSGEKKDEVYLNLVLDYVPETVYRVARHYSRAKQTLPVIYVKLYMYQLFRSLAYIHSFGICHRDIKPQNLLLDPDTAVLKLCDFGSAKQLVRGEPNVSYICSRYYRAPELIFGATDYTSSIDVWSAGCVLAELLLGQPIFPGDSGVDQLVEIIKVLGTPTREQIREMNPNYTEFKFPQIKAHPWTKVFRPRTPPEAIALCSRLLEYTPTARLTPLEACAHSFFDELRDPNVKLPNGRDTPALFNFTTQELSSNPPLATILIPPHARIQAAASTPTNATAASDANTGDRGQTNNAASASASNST
Chain of PIM2 (Q9P1W9 whole entry): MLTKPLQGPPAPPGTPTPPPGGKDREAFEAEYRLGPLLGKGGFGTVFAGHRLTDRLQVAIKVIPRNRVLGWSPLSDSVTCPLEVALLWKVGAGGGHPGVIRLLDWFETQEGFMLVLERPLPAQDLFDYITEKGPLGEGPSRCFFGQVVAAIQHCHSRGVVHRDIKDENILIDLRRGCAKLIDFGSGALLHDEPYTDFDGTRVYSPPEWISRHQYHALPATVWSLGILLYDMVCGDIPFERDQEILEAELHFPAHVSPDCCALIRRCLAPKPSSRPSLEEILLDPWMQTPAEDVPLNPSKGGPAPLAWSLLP
Chain of PIM1 (P11309 whole entry): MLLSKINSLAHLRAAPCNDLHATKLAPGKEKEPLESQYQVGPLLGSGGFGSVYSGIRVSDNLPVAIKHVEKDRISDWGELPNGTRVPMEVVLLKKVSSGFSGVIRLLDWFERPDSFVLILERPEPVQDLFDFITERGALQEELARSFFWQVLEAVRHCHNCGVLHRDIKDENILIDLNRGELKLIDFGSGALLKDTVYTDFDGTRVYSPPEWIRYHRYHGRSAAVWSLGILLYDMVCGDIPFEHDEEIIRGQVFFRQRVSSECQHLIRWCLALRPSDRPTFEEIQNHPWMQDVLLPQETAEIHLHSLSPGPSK

SMILES | pIC50 [1] | pEC50 [2] | pIC50 [3] | pIC50 [4] | pIC50 [5]
C[C@@H]1OC(c2ccncc2NC(=O)c2nc(-c3c(F)cccc3F)ncc2N)=C[C@H](O)[C@@]1(C)O [Example 10, 5-amino-2-(2,6-difluorophenyl)-N-(4-((2S,3R,4S)-3,4-dihydroxy-2,3-dimethyl-3,4-dihydro-2H-pyran-6-yl)pyridin-3-yl)pyrimidine-4-carboxamide] | 7.40 | 5.06 | 7.73 | 5.83 | 7.69
C[C@H]1OC(c2ccncc2NC(=O)c2nc(-c3c(F)cccc3F)ncc2N)=C[C@@H](O)[C@]1(C)O [Example 11, 5-amino-2-(2,6-difluorophenyl)-N-(4-((2R,3S,4R)-3,4-dihydroxy-2,3-dimethyl-3,4-dihydro-2H-pyran-6-yl)pyridin-3-yl)pyrimidine-4-carboxamide] | 8.85 | 6.14 | 9.15 | 6.14 | 8.74
Nc1cnc(-c2c(F)cccc2F)nc1C(=O)Nc1cnccc1C1=C[C@@H](O)[C@H](O)[C@@H](CCl)O1 [Example 14, 5-amino-N-(4-((2S,3S,4R)-2-(chloromethyl)-3,4-dihydroxy-3,4-dihydro-2H-pyran-6-yl)pyridin-3-yl)-2-(2,6-difluorophenyl)pyrimidine-4-carboxamide] | 8.70 | 5.58 | 9.00 | 7.15 | 8.52
CC[C@]1(O)[C@H](O)C[C@H](c2ccncc2NC(=O)c2nc(-c3ccccc3)cnc2N)O[C@@H]1C [Example 15, 3-amino-N-(4-((2R,4R,5S,6R)-5-ethyl-4,5-dihydroxy-6-methyltetrahydro-2H-pyran-2-yl)pyridin-3-yl)-6-phenylpyrazine-2-carboxamide] | 8.10 | 6.74 | 9.00 | 9.00 | 8.70
C=C[C@H]1OC(c2ccncc2NC(=O)c2nc(-c3ccccc3)ncc2N)=C[C@@H](O)[C@@H]1O [Example 22, 5-amino-N-(4-((2R,3S,4R)-3,4-dihydroxy-2-vinyl-3,4-dihydro-2H-pyran-6-yl)pyridin-3-yl)-2-phenylpyrimidine-4-carboxamide] | 6.80 | < 5.00 | 7.70 | 6.06 | 8.05
C=C[C@H]1OC(c2ccncc2NC(=O)c2nc(-c3ccccc3F)c(F)cc2N)=C[C@@H](O)[C@@H]1O [Example 24, 3-amino-N-(4-((2R,3S,4R)-3,4-dihydroxy-2-vinyl-3,4-dihydro-2H-pyran-6-yl)pyridin-3-yl)-5-fluoro-6-(2-fluorophenyl)picolinamide] | 8.15 | 5.13 | 9.00 | 6.75 | 8.40
CC[C@]1(O)[C@H](O)C[C@H](c2ccncc2NC(=O)c2nc(-c3ccccc3)ncc2N)O[C@@H]1C [Example 26, 5-amino-N-(4-((2R,4R,5S,6R)-5-ethyl-4,5-dihydroxy-6-methyltetrahydro-2H-pyran-2-yl)pyridin-3-yl)-2-phenylpyrimidine-4-carboxamide] | 7.54 | < 5.00 | 8.40 | 6.56 | 8.70
Nc1cc(F)c(-c2ccccc2F)nc1C(=O)Nc1cnccc1C1=C[C@@H](O)[C@H](O)[C@@H](CCl)O1 [Example 29, 3-amino-N-(4-((2S,3S,4R)-2-(chloromethyl)-3,4-dihydroxy-3,4-dihydro-2H-pyran-6-yl)pyridin-3-yl)-5-fluoro-6-(2-fluorophenyl)picolinamide] | 9.00 | 5.33 | 9.00 | 7.39 | 9.00

Further lines, results first:

pIC50 [1] | pEC50 [2] | pIC50 [3] | pIC50 [4] | pIC50 [5] | SMILES
6.49 | < 5.00 | 7.29 | 5.88 | 6.83 | C=C1[C@H](O)C[C@H](c2ccncc2NC(=O)c2nc(-c3c(F)cccc3F)ncc2N)OC12CC2 [Example 8, 5-amino-2-(2,6-difluorophenyl)-N-(4-((5R,7R)-7-hydroxy-8-methylene-4-oxaspiro[2.5]octan-5-yl)pyridin-3-yl)pyrimidine-4-carboxamide]
6.81 | < 5.00 | 8.31 | 6.34 | 7.60 | C=C1[C@H](O)C[C@H](c2ccncc2NC(=O)c2ccc(F)c(-c3c(F)cccc3F)n2)OC12CC2 [Example 9, 6-(2,6-difluorophenyl)-5-fluoro-N-(4-((5R,7R)-7-hydroxy-8-methylene-4-oxaspiro[2.5]octan-5-yl)pyridin-3-yl)picolinamide]
8.30 | 5.12 | 9.00 | 6.66 | 8.52 | N#C[C@H]1O[C@@H](c2ccncc2NC(=O)c2nc(-c3c(F)cccc3F)c(F)cc2N)C[C@@H](O)[C@@H]1O [Example 12, 3-amino-N-(4-((2R,4R,5S,6R)-6-cyano-4,5-dihydroxytetrahydro-2H-pyran-2-yl)pyridin-3-yl)-6-(2,6-difluorophenyl)-5-fluoropicolinamide]
7.92 | 5.09 | 9.00 | 6.23 | 8.30 | N#C[C@H]1O[C@@H](c2ccncc2NC(=O)c2ccc(F)c(-c3c(F)cccc3F)n2)C[C@@H](O)[C@@H]1O [Example 13, N-(4-((2R,4R,5S,6R)-6-cyano-4,5-dihydroxytetrahydro-2H-pyran-2-yl)pyridin-3-yl)-6-(2,6-difluorophenyl)-5-fluoropicolinamide]
8.52 | 5.38 | 8.70 | 7.18 | 8.40 | Nc1cnc(-c2c(F)cccc2F)nc1C(=O)Nc1cnccc1[C@H]1C[C@@H](O)[C@H](O)[C@@H](CCl)O1 [Example 17, 5-amino-N-(4-((2R,4R,5S,6S)-6-(chloromethyl)-4,5-dihydroxytetrahydro-2H-pyran-2-yl)pyridin-3-yl)-2-(2,6-difluorophenyl)pyrimidine-4-carboxamide]
8.30 | 5.24 | 8.52 | 6.72 | 8.30 | CC[C@H]1O[C@@H](c2ccncc2NC(=O)c2nc(-c3c(F)cccc3F)ncc2N)C[C@@H](O)[C@@H]1O [Example 18, 5-amino-2-(2,6-difluorophenyl)-N-(4-((2R,4R,5S,6R)-6-ethyl-4,5-dihydroxytetrahydro-2H-pyran-2-yl)pyridin-3-yl)pyrimidine-4-carboxamide]
7.39 | < 5.00 | 8.22 | 6.70 | 8.10 | C=C[C@H]1OC(c2ccncc2NC(=O)c2ccnc(-c3c(F)cccc3F)n2)=C[C@@H](O)[C@@H]1O [Example 23, 2-(2,6-difluorophenyl)-N-(4-((2R,3S,4R)-3,4-dihydroxy-2-vinyl-3,4-dihydro-2H-pyran-6-yl)pyridin-3-yl)pyrimidine-4-carboxamide]
8.70 | 5.87 | 9.00 | 6.18 | 8.70 | C=C[C@H]1OC(c2ccncc2NC(=O)c2nc(-c3c(F)cccc3F)c(F)cc2N)=C[C@@H](O)[C@@H]1O [Example 25, 3-amino-6-(2,6-difluorophenyl)-N-(4-((2R,3S,4R)-3,4-dihydroxy-2-vinyl-3,4-dihydro-2H-pyran-6-yl)pyridin-3-yl)-5-fluoropicolinamide]
8.15 | 6.09 | 8.70 | 7.66 | 8.52 | O=C(Nc1cnccc1C1=C[C@@H](O)[C@H](O)[C@@H](CCl)O1)c1ccnc(-c2c(F)cccc2F)n1 [Example 28, N-(4-((2S,3S,4R)-2-(chloromethyl)-3,4-dihydroxy-3,4-dihydro-2H-pyran-6-yl)pyridin-3-yl)-2-(2,6-difluorophenyl)pyrimidine-4-carboxamide]
9.00 | 6.08 | 9.00 | 6.70 | 9.00 | Nc1cc(F)c(-c2c(F)cccc2F)nc1C(=O)Nc1cnccc1C1=C[C@@H](O)[C@H](O)[C@@H](CCl)O1 [Example 30, 3-amino-N-(4-((2S,3S,4R)-2-(chloromethyl)-3,4-dihydroxy-3,4-dihydro-2H-pyran-6-yl)pyridin-3-yl)-6-(2,6-difluorophenyl)-5-fluoropicolinamide]
